In assay [1] the test system is MCF-7 human breast tumor cell line. Nature of the assay: Human Tumor Cell Growth Inhibition, MCF-7. Type of assay: cell-based. Conditions: for IC50: Homo sapiens, MCF7, 3H-thymidine incorporation, value outside parentheses (not salt); for inhibit growth of MCF-7 cells: result in words. As for the experimental part: MCF-7 a human breast tumor cell line and MCF-7/ADR an adriamycin resistant line of MCF-7 cells were obtained from the National Cancer Institute, Frederick, Md. […] Human tumor cells are trypsinized (0.05% trypsin, GIBCO), counted with a hemacytometer and seeded at a concentration of 10,000 cells/well in a 96 well microtiter plate. After allowing cells to attach to the surface overnight, the culture medium is aspirated and replaced with 100 μl of fresh medium. Test agents are diluted to determine dose response at 2× final concentration and added in quadruplicate at 100 μl/well to bring the total volume of each well to 200 μl. The microtiter plate is then incubated at 37° C. 5% CO2 overnight (18-24 hrs) before ^3 H-thymidine is added at a concentration of 0.5 μCi/well in 50 μl culture medium. The plate is incubated again for 4 hrs under the same conditions as above. Supernatant is then aspirated and 50 μl trypsin (0.05%, GIBCO) is added to each well. Cells are checked microscopically to determine detachment from surfaces, and plates are then harvested with a cell harvester (PHD, Cambridge Technology, Inc.) Filter papers corresponding to wells are placed in scintillation vials and counted to determine the amount of ^3 H-thymidine incorporated by the cells. Test agent response is compared to a positive control of cell wells with culture media only to determine the IC50. IC50 is the concentration of test compound required to inhibit fifty per cent of the incorporation of ^3 H-thymidine into proliferating cells not exposed to test agent. Uptake of ^3 H-thymidine is a standard test for measuring the metabolism of cells. Cells which are actively proliferating take up ^3 H-thymidine, whereas cells that are not proliferating take up ^3 H-thymidine at much slower rates or not at all. Test agents that inhibit the uptake of ^3 H-thymidine thus slow the growth of cells.

A further assay has as its target protein kinase C (PKC). Nature of the assay: Protein Kinase C Inhibition. It is filed as biochemical, rat. How it is done:
The protein kinase C (PKC) assay is designed to duplicate the in vivo conditions required for protein kinase C function. Therefore, pH, salt and cofactor concentrations are similar to physiologic levels. Histone H1 (lysine rich) is used in the assay as the phosphorylation acceptor protein because it is readily available and serves as a good substrate for protein kinase C. The enzyme is prepared from rat brain and is purified to apparent homogeneity as determined by a single band on silver stained SDS-polyacrylamide. Studies on the mechanism of regulation of protein kinase C by phospholipids, DAG and Ca^+2 have been hampered by the physical properties of the lipid cofactors. In the screening assay, phosphatidylserine (PS) and DAG are co-sonicated to form unilamellar and multilamellar vesicles. The concentration of lipids in the assay are suboptimal to maximize the detection potential of the assay for inhibitors. […] The assay is started with the addition of enzyme and stopped after 10 min by the addition of 25% trichloroacetic acid (TCA) and 1.0 mg/ml bovine serum albumin (BSA). The radioactive histone product is retained and washed on glass fiber filters that allow the unreacted ^32 P-ATP to pass through. The amount of phosphorylation is determined by the radioactivity measured in a scintillation counter. Controls are included in every assay to measure background activity in the absence of enzyme, activity in the absence of lipids and the maximum enzyme activity with saturating levels of the activator lipids.
Both the free base and the HCl salt were tested.

Assay [2] concerns NHEK cells (proliferating keratinocytes). Briefly: Human Keratinocyte Inhibition. Type of assay: cell-based. Conditions: 3H-thymidine incorporation. As for the experimental part:
Proliferating keratinocytes (NHEK cells purchased from Clonetics, Inc., San Diego, Calif.) in second passage were grown in Keratinocyte Growth Medium (KGM) (Clonetics, Inc.) Cells are trypsinized (0.025% trypsin, Clonetics), counted with a hemacytometer (Scientific Products), and seeded at a concentration of 2,500 cells/well in a 96 well microtiter plate. After allowing cells to attach to the surface overnight, the culture medium is aspirated and replaced with 100 μl of fresh KGM. […] IC50 is the concentration of test compound required to inhibit fifty percent of the incorporation of ^3 H-thymidine into proliferating cells not exposed to test agent.

The target of assay [3] is T1, protein kinase (PKA), catalytic subunit (Homo sapiens, UniProt P17612).
T1 construct: purchased Sigma Chemical Company, St. Louis, Mo
Briefly: cAMP-Dependent Protein Kinase (PKA) Assay. It is filed as biochemical. Conditions: free base. How it is done:
Compound found to be inhibitors of protein kinase C are tested for inhibitory activity against protein kinase (PKA). This enzyme, like protein kinase C, plays an important role in cell-cell communication and is activated by a second messenger, cAMP. Secondary screening against PKA is useful for ascertaining the selectivity of the compounds of the invention. The catalytic subunit of PKA (Sigma Chemical Company, St. Louis, Mo.) is mixed with buffer before addition of the inhibitor in dimethylsulfoxide (DMSO). The assay is started by the addition of 32P-ATP and the reaction is allowed to proceed for 10 min before stopping with 25% trichloroacetic acid (TCA) and 1.0 mg/ml bovine serum albumin (BSA). The phosphorylated protein is isolated by filtration and the radioactivity is counted in a beta scintillation counter.

Assay [4] has as its system PMA-stimulated neutrophils. Nature of the assay: Neutrophil Superoxide Anion (O2^-) Release Assay. It is filed as cell-based, human. The following applies: for IC50: Homo sapiens, Neutrophil, PMA-stimulated; for inhibit O2^- production by PMA-stimulated neutrophils: result in words. How it is done: Neutrophils are isolated form whole blood collected from human volunteers. All reagent materials are obtained from Sigma Chemical Company with the exception of isotonic saline (Travenol Laboratories, Inc., Deerfield, Ill.) and lymphocyte separation medium (Organon Teknika, Durham, N.C.).
Whole blood is drawn and mixed with sodium heparin (final conc. 10 units/ml) to prevent clotting. An equal volume of dextran (3.0%) in isotonic saline is added, mixed, and allowed to settle for 30 min to bind red blood cells (RBC). Supernatant is removed, underlayered with lymphocyte separation medium and centrifuged for 40 min at 400 xg in a centrifuge (Beckman GPR, Norcross, Ga). The pellet is alternately resuspended in 0.2% and 1.6% NaCl to lyse RBCs before washing with Hank's Balanced Salt Solution (HBSS). The washed pellet is resuspended in 10 mL HBSS and placed on ice before counting on a hemacytometer.
The neutrophil cell concentration is adjusted to 2×10^6 cells/ml with HBSS before adding 0.8 mL cells to 12×75 mm polypropylene test tubes (Fisher Scientific). Test agents are diluted to determine dose response and added at 10× final concentration at a volume of 0.1 mL/tube in duplicate. Then 10× concentrations of cytochrome C (15 mg/ml) with catalase (3000 units/ml) either alone or containing 25 ng/ml phorbol 12-myristate 13-acetate (PMA) are added at a volume of 0.1 mL/tube and incubated at 37° C. for 30 min before stopping the reaction by placing tubes on ice. Tubes are then centrifuged at 900 xg for 10 min, 0.5 mL supernatant is removed and added to 0.5 mL H2 O in a microcuvette. Optical density (OD) of cytochrome c is read in a spectrophotometer (Shimadzu) at 550 nm. The ΔOD of cytochrome c is obtained between PMA-stimulated and non-stimulated tubes, and the dose responses of the test agents are compared to the positive controls (which contain HBSS in place of test agents). PMA stimulates O2^- production which reduces cytochrome c. Reducing cytochrome c increases its absorbance, and the change in OD of cytochrome c is proportional to the amount of O2^- produced by PMA stimulation. Inhibition of the O2^- burst by test compounds of the invention is seen as a reduction in the change in optical density. Inhibition is expressed as IC50 μM and is the amount of test compound that will inhibit fifty percent of the PMA-stimulated respiratory outburst, i.e. O2^- production.

Assay [5] concerns MCF-7 human breast tumor cell line. Nature of the assay: Human Tumor Cell Growth Inhibition, MCF-7. It is filed as cell-based. The following applies: MCF7, 3H-thymidine incorporation, value in parentheses: salt.
Setting [6] is: value outside parentheses (not salt), read-out: NHEK IC50.
Setting [7] is: value in parentheses: salt, read-out: Neutrophil Superoxide Release IC50 (salt).
Where [8] appears, read: value outside parentheses (not salt), read-out: Neutrophil Superoxide Release IC50.
The mark [9] stands for this setting: value in parentheses: salt, read-out: NHEK IC50 (salt).

Read-outs that look alike come from different tables or passages of the source.

As for `CCCCCCCCCCCCCCCC(=O)N(CCC[N+]1(C)CCOCC1)Cc1ccccc1` [Compound 22], the IC50 in assay [1] is 15.4 µM; at protein kinase C (PKC) (free base), 45 µM; in assay [2] (setting [6]) it was 1.6 µM; in assay [3] it was less than 44 µM.
Regarding `CCCCCCCCCCCCCCCC(=O)N(CC)CCCN(C)C` [Compound 7, N,N-Dimethyl-N'-ethyl-N'-hexadecanoyl-1,3-propanediamine], the IC50 on protein kinase C (PKC) (HCl salt) came to 38 µM; on protein kinase C (PKC) (free base), 50 µM; in assay [3], 119 µM.
Taken in the same sequence, the figures for `CCCCCCCCCCCCCCCC(=O)N(C)CCN(C)C` [Compound 25, N,N,N'-Trimethyl-N'-hexadecanoyl-1,3-ethanediamine] were 100 µM, 92 µM and greater than 218 µM.
Regarding `CCCCCCCCCCCCCCCC(=O)N(C)CCN(C)C` [Compound 3], the results for the half-maximal inhibitory concentration (IC50) on protein kinase C (PKC) (HCl salt) and on protein kinase C (PKC) (free base) were 66 µM and 40 µM, respectively.
In the case of `CCCCCCCCCCCCCCCC(=O)NCCCN(CC)CC` [Compound 10, N,N-Diethyl-N'-hexadecanoyl-1,3-propanediamine], the 50% inhibitory concentration (IC50) against protein kinase C (PKC) (free base) is 131 µM; in assay [2] (setting [6]) it was 1.56 µM; in assay [3], greater than 218 µM.
Turning to `CCCCCCCCCCCCCCCC(=O)N(C)CCCN(C)C` [Compound 4, N-Hexadecanoyl-N,N',N'-trimethyl-1,3-propanediamine], the IC50 in assay [4] (setting [7]) came out at 2.39 µM; in assay [4] (setting [8]) it was 45 µM; in assay [1] it was 1.5 µM; at protein kinase C (PKC) (HCl salt), 57 µM; on protein kinase C (PKC) (free base) it was 107 µM; in assay [2] (setting [9]) it was 2.4 µM. The IC50 in assay [2] (setting [6]) is 0.8 µM; in assay [5], 2.9 µM; in assay [3] it was 90 µM. For the same molecule, the “inhibit O2^- production by PMA-stimulated neutrophils” value in assay [4] (HCl salt) and in assay [4] (compound itself) was “inhibit O2^- production by PMA-stimulated neutrophils at micromolar concentrations” each time. The “inhibit growth of MCF-7 cells” value in assay [1] is “effectively inhibit growth of MCF-7 cells at micromolar concentrations”.
For `CCCCCCCCCCCCCCCCN(CCCN(C)C)C(C)=O` [Compound 20, N-Acetyl-N-hexadecyl-N',N'-dimethyl-1,3-propanediamine], the 50% inhibitory concentration (IC50) in assay [4] (setting [8]) amounted to 1.1 µM; at protein kinase C (PKC) (HCl salt), 44 µM; at protein kinase C (PKC) (free base), 69 µM; in assay [2] (setting [6]), 1.3 µM; in assay [3], 67 µM.
On to `CCCCCCCCCCCCCCCC(=O)N(CCC)CCCN(C)C` [Compound 8, N,N-Dimethyl-N'-hexadecanoyl-N'-propyl-1,3-propanediamine], for which the IC50 in assay [4] (setting [8]) is 2.9 µM; in assay [1], 9.7 µM; on protein kinase C (PKC) (HCl salt), 48 µM; at protein kinase C (PKC) (free base), 131 µM; in assay [2] (setting [6]), 1.03 µM; in assay [3], greater than 218 µM.
For `CCCCCCCCCCCCCCCC(=O)NCCCN(C)C` [Compound 6, N,N-Dimethyl-N'hexadecanoyl-1,3-propanediamine], the IC50 amounted to 2.8 µM in assay [4] (setting [7]); 2.32 µM in assay [4] (setting [8]); 4.5 µM in assay [1]; 50 µM on protein kinase C (PKC) (HCl salt); 50 µM on protein kinase C (PKC) (free base); 0.78 µM in assay [2] (setting [9]). Also, the IC50 was determined as 3.5 µM in assay [5] and 140 µM in assay [3]. For the same molecule, the “inhibit O2^- production by PMA-stimulated neutrophils” value in assay [4] (HCl salt) and in assay [4] (compound itself) was “inhibit O2^- production by PMA-stimulated neutrophils at micromolar concentrations” throughout. Moreover, the “inhibit growth of MCF-7 cells” value in assay [1] is “effectively inhibit growth of MCF-7 cells at micromolar concentrations”.
Regarding `CCCCCCCCCCCCCCCC(=O)NCCC[N+](C)(C)C` [Compound 15, N-Hexadecanoyl-3-trimethylammoniumpropylamine iodide], the results for the IC50 (in assay [1]; against protein kinase C (PKC) (free base); in assay [2] (setting [6])) were 5 µM, 24 µM and 3.3 µM, respectively.
As for `CCCCCCCCCCCCCCCC(=O)N(CCCN(C)C)C(C)C` [Compound 9, N,N-Dimethyl-N'-(2-propyl)-N'-hexadecanoyl-1,3-propanediamine], the half-inhibitory concentration (IC50) in assay [4] (setting [8]) came to 0.9 µM; in assay [1], 5.1 µM; on protein kinase C (PKC) (HCl salt) it was 130 µM; on protein kinase C (PKC) (free base), 146 µM; in assay [2] (setting [6]) it was 0.14 µM; in assay [3] it was 172 µM.

Values taken from patent publication US5270310A, “N-aminoalkyl amide inhibitors of protein kinase C” (Sphinx Pharmaceuticals Corporation, priority 1991, dated 1993).
